Entries after “also recorded” stand apart in the source; their conditions may differ. Read-outs that look alike come from different tables or passages of the source.
Columns and labels:
platelet aggregation = assay: In vitro anti-platelet aggregation activity evaluation (PAF-induced, platelet-rich plasma); format: cell-based, New Zealand white rabbits; details: for inhibitory effect on platelet aggregation in vitro (in words): 1 μM, compared with Ginkgolide B; for activity at 1 µM: Oryctolagus cuniculus, Platelet, read-out: Platelet aggregation rate (%, 1 μM)
Method: Experimental method: New Zealand white rabbits were anesthetized with sodium pentobarbital (2%, 2 mL/kg), about 40 mL of blood was obtained by abdominal aortic puncture, and the supernatant was collected as platelet-rich serum (PRP) after centrifugation at 1000 rpm/min for 10 min, the remaining blood was centrifuged at 4000 rpm/min for 10 min, and the supernatant was collected as platelet-poor serum (PPP); blank control group: 100 μL PRP+100 μL normal saline; drug group: 100 μL PRP+100 μL 0.05% DMSO dissolved drug (Ginkgolide B was positive control group), and the final drug concentration was 1 μM.

[1] = test system: platelet aggregation in SD rats; assay: Anticoagulant activity in SD rats (ADP-induced maximum platelet aggregation rate after gavage); format: in vivo; details: for Average maximum platelet aggregation rate (%): 50 mg/kg by gavage once a day for 3 days, ADP inducer, PAGM within 5 min; for anti-aggregation activity on platelet aggregation in SD rats (in words): 50 mg/kg, n=10, compared with Ginkgolide B
Method: Experimental method: Rats were randomly divided into 10 rats in each group, and each group was given the corresponding test drug (50 mg/kg) by gavage after weighing, once a day for 3 days.
150 μL of PRP in each group was sucked and added to the 96-well plate (adjusted to zero by PPP), and ADP inducer was added, the absorbance value A1 was measured at the wavelength of 650 nm in the microplate reader, which was the absorbance value of each group at 0 min; the oscillation mode of the microplate reader was turned on, and the absorbance value A2 was detected again after 5 min, which was the absorbance value of each group at 5 min. Since the addition of ADP would cause platelet aggregation and change the light permeability, the maximum platelet aggregation rate (PAGM) within 5 min was measured according to this principle. Maximum platelet aggregation rate(PAGM)=(A1−A2)/A1×100

[2] = test system: acute cerebral ischemia in SD rats; assay: Anti-acute cerebral ischemia activity (middle cerebral artery electrocoagulation, TTC staining); format: in vivo
Method: At this time, a relatively straight blood vessel with few branches can be seen through the dura mater, that is, the middle cerebral artery. […] The temporal muscle and skin were sutured in turn, and then the rat was administered by gavage (50 mg/kg). After the rats were awakened, they were put back into their cages and continued to be reared for 24 h.
The brain slices were stained in 1% TTC dye solution (incubated at 37° C. in the dark for about 5-10 min), the infarcted area of brain slices after staining was white, while the non-infarcted area was rose red; after staining was completed, the brain slices were moved to 10% formaldehyde solution and kept away from light for 24 hours, finally, a digital camera was used to take pictures, the areas of frontal and reverse infarcted areas and non-infarcted areas were measured by image analysis software (ImageJ, version: 1.4.3.67), and the ratio of infarcted areas in the total infarcted cerebral hemisphere was calculated.

[3] = 1 μM drug, PAF-induced, rabbit PRP, corrected to blank = 100, n=5
[4] = SD rats, 50 mg/kg by gavage after occlusion, 24 h, n=10
[5] = SD rats, 50 mg/kg, n=10, compared with model group / Ginkgolide B, 50 mg/kg
[6] = SD rats, 50 mg/kg by gavage after occlusion, 24 h, n=10, 50 mg/kg

Compound | Platelet aggregation rate (%, 1 μM) (platelet aggregation; [3]) [%] | inhibitory effect on platelet aggregation in vitro (in words) (platelet aggregation) | Average maximum platelet aggregation rate (%) ([1]; n=10) | also measured
2-(Ginkgolide B-10-oxy) n-pentylamine Acetate [Embodiment 17] | 21.90 | significant activity | 34.20 | Average area ratio of hemicerebral infarction (%) [2, 4]: 25.31%
2-(Ginkgolide B-10-oxy) pyrrolidine Acetate [Embodiment 18] | 26.45 |  |  | 
2-(Ginkgolide B-10-oxy)ammonium Acetate [Embodiment 11] | 56.53 |  |  | 
2-(Ginkgolide B-10-oxy)arginine Acetate [Embodiment 13] | 15.66 | significant activity | 21.25 | anti-aggregation activity on platelet aggregation in SD rats (in words) [1]: particularly significant (P<0.001); Average area ratio of hemicerebral infarction (%) [2, 4]: 20.14%; activity for reducing the area ratio of hemicerebral infarction in SD rats (in words) [2, 5]: particularly significant (P<0.001)
2-(Ginkgolide B-10-oxy)diethylamine Acetate [Embodiment 16] | 28.87 |  |  | 
2-(Ginkgolide B-10-oxy)histidine Acetate [Embodiment 14] | 19.74 | significant activity | 26.82 | anti-aggregation activity on platelet aggregation in SD rats (in words) [1]: particularly significant (P<0.001); Average area ratio of hemicerebral infarction (%) [2, 4]: 17.98%; activity for reducing the area ratio of hemicerebral infarction in SD rats (in words) [2, 5]: particularly significant (P<0.001)
2-(Ginkgolide B-10-oxy)lysine Acetate [Embodiment 12] | 12.23 | significant activity | 22.65 | anti-aggregation activity on platelet aggregation in SD rats (in words) [1]: particularly significant (P<0.001); Average area ratio of hemicerebral infarction (%) ([2]; rat, in vivo, 50 mg/kg): 18.83%; activity for reducing the area ratio of hemicerebral infarction in SD rats (in words) ([2]; rat, in vivo, 50 mg/kg): particularly significant (P<0.001); also recorded: significantly better than Ginkgolide B and embodiment 10
2-(Ginkgolide B-10-oxy)morpholine Acetate [Embodiment 19] | 35.77 |  |  | 
2-(Ginkgolide B-10-oxy)triethylamine Acetate [Embodiment 15] | 24.65 |  |  | 
2-(Ginkgolide B-10-oxyethoxy)N-methyl-D-glucosamine Acetate [Embodiment 21] | 18.64 | significant activity | 29.35 | Average area ratio of hemicerebral infarction (%) [2, 4]: 22.66%
2-(Ginkgolide B-10-oxyethoxy)sodium Acetate [Embodiment 20] | 45.32 |  |  | 
COC(=O)CO[C@H]1C(=O)O[C@H]2O[C@]34C(=O)OC5C[C@@H](C(C)(C)C)C21[C@@]53[C@@H](O)[C@@H]1OC(=O)C(C)[C@@]14O (some centres unmarked) [Embodiment 1, 10-O-(methoxyformylmethyl) Ginkgolide B] |  |  |  | activity at 1 µM (platelet aggregation): 30%
COC(=O)/C=C/CO[C@H]1C(=O)O[C@H]2O[C@]34C(=O)OC5C[C@@H](C(C)(C)C)C21[C@@]53[C@@H](O)[C@@H]1OC(=O)C(C)[C@@]14O (some centres unmarked) [Embodiment 2, 10-O-(methoxyformylallyl) Ginkgolide B] |  | significant activity | 32.60 | activity at 1 µM (platelet aggregation): 10.3%; Average area ratio of hemicerebral infarction (%) [2, 4]: 21.56%
CC1C(=O)O[C@H]2[C@H](O)[C@@]34C5C[C@@H](C(C)(C)C)C36[C@@H](OC(=O)[C@@H]6OCC(=O)OC(C)(C)C)O[C@@]4(C(=O)O5)[C@@]12O (some centres unmarked) [Embodiment 3, 10-O-(tert-butoxyformylmethyl) Ginkgolide B] |  |  |  | activity at 1 µM (platelet aggregation): 26.1%
COC(=O)COCCO[C@H]1C(=O)O[C@H]2O[C@]34C(=O)OC5C[C@@H](C(C)(C)C)C21[C@@]53[C@@H](O)[C@@H]1OC(=O)C(C)[C@@]14O (some centres unmarked) [Embodiment 4, 10-O-(methoxyformylmethoxyethyl) Ginkgolide B] |  |  |  | activity at 1 µM (platelet aggregation; [3]): 46.7%
COC(=O)COCCOCCO[C@H]1C(=O)O[C@H]2O[C@]34C(=O)OC5C[C@@H](C(C)(C)C)C21[C@@]53[C@@H](O)[C@@H]1OC(=O)C(C)[C@@]14O (some centres unmarked) [Embodiment 5, 10-O-(methoxyformylmethoxyethoxyethyl) Ginkgolide B] |  |  |  | activity at 1 µM (platelet aggregation): 39.3%
CC1C(=O)O[C@H]2[C@H](O)[C@@]34C5C[C@@H](C(C)(C)C)C36[C@@H](OC(=O)[C@@H]6OC/C=C/C(=O)O)O[C@@]4(C(=O)O5)[C@@]12O (some centres unmarked) [Embodiment 6, 4-(Ginkgolide B-10-oxy)-2-butenoic Acid] |  |  |  | activity at 1 µM (platelet aggregation; [3]): 45.7%
CC1C(=O)O[C@H]2[C@H](O)[C@@]34C5C[C@@H](C(C)(C)C)C36[C@@H](OC(=O)[C@@H]6OCC(=O)O)O[C@@]4(C(=O)O5)[C@@]12O (some centres unmarked) [Embodiment 7, 2-(Ginkgolide B-10-oxy)acetic Acid] | 17.66 | significant activity |  | Average maximum platelet aggregation rate (%) ([1]; n=10, 50 mg/kg): 35.20%; Average area ratio of hemicerebral infarction (%) [2, 6]: 25.14%
CC1C(=O)O[C@H]2[C@H](O)[C@@]34C5C[C@@H](C(C)(C)C)C36[C@@H](OC(=O)[C@@H]6OCCOCC(=O)O)O[C@@]4(C(=O)O5)[C@@]12O (some centres unmarked) [Embodiment 8, 2-(Ginkgolide B-10-oxyethoxy)acetic Acid] |  |  |  | activity at 1 µM (platelet aggregation; [3]): 23.7%
CC1C(=O)O[C@H]2[C@H](O)[C@@]34C5C[C@@H](C(C)(C)C)C36[C@@H](OC(=O)[C@@H]6OCCOCCOCC(=O)O)O[C@@]4(C(=O)O5)[C@@]12O (some centres unmarked) [Embodiment 9, 2-(Ginkgolide B-10-oxyethoxyethoxy)acetic Acid] |  |  |  | activity at 1 µM (platelet aggregation; [3]): 35%
CC1C(=O)O[C@H]2[C@H](O)[C@@]34C5C[C@@H](C(C)(C)C)C36[C@@H](OC(=O)[C@@H]6OCC(=O)O)O[C@@]4(C(=O)O5)[C@@]12O (some centres unmarked) [Embodiment 10, 2-(Ginkgolide B-10-oxy)sodium Acetate] | 39.34 |  |  | Average maximum platelet aggregation rate (%) ([1]; n=10, 50 mg/kg): 42.20%; Average area ratio of hemicerebral infarction (%) [2, 6]: 29.61%
CC1C(=O)OC2C(O)C34C5CC(C(C)(C)C)C36C(OC(=O)C6O)OC4(C(=O)O5)C12O (centres unmarked) [Ginkgolide B] | 63.42 |  | 39.57 | Average area ratio of hemicerebral infarction (%) [2, 4]: 26.12%
